# Assay results from patent publication US8188135B2, “Compounds as cannabinoid receptor ligands” (priority 2008, dated 2012).
# Where two headings read alike, the source gives them in different places.
# Columns and labels:
# human CB2 receptors = molecular target: T1, human CB2 receptors (Homo sapiens, UniProt P34972); assay: human CB2 radioligand binding assay ([3H]CP 55,940 competition); conditions: HEK293 membranes, 0.5 nM [3H]CP 55,940
# T1 construct: expressed in transfected cells; host or cells: HEK293
# Protocol: (§1) The CB1 and CB2 radioligand binding assays described herein are utilized to ascertain the affinity of compounds of the present application for binding to CB2 relative to CB1 receptors.
# HEK293 cells stably expressing human CB2 receptors were grown until a confluent monolayer was formed. Briefly, the cells were harvested and homogenized in TE buffer (50 mM Tris-HCl, 1 mM MgCl2, and 1 mM EDTA) using a polytron for 2×10 second bursts in the presence of protease inhibitors, followed by centrifugation at 45,000×g for 20 minutes. The final membrane pellet was re-homogenized in storage buffer (50 mM Tris-HCl, 1 mM MgCl2, and 1 mM EDTA and 10% sucrose) and frozen at −78° C. until used. Saturation binding reactions were initiated by the addition of membrane preparation (protein concentration of 5 μg/well for human CB2) into wells of a deep well plate containing [^3H]CP 55,940 (120 Ci/mmol, a nonselective CB agonist commercially available from Tocris) in assay buffer (50 mM Tris, 2.5 mM EDTA, 5 mM MgCl2, and 0.5 mg/mL fatty acid free BSA, pH 7.4). After 90 min incubation at 30° C., binding reaction was terminated by the addition of 300 μL/well of cold assay buffer followed by rapid vacuum filtration through a UniFilter-96 GF/C filter plates (pre-soaked in 1 mg/mL BSA for 2 hours). The bound activity was counted in a TopCount using Microscint-20. Saturation experiments were conducted with twelve concentrations of [^3H]CP 55,940 ranging from 0.01 to 8 nM. Competition experiments were conducted with 0.5 nM [^3H]CP 55,940 and five concentrations (0.01 nM to 10 μM) of displacing ligands. The addition of 10 μM unlabeled CP 55,940 (Tocris, Ellisville, Mo.) was used to assess nonspecific binding.
# rat CB2 = molecular target: T2, rat CB2 (Rattus norvegicus, UniProt Q9QZN9); assay: rat CB2 radioligand binding assay ([3H]CP 55,940 competition); set-up: expressed in transfected cells; host or cells: HEK293; conditions: HEK293 membranes, 0.5 nM [3H]CP 55,940
# T2 sequence (Q9QZN9 1-360): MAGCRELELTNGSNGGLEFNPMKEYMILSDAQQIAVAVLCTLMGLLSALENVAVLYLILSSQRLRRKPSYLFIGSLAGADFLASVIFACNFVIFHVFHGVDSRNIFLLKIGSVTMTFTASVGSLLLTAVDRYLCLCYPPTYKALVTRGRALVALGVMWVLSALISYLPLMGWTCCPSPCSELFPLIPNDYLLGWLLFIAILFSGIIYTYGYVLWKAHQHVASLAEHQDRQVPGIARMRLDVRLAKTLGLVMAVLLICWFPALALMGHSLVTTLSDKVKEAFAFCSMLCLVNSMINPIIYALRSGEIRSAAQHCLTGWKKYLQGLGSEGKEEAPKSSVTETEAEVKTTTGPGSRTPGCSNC
# Protocol: as §1
# HEK293 cells stably expressing rat CB2 receptors were grown until a confluent monolayer was formed. Briefly, the cells were harvested and homogenized in TE buffer (50 mM Tris-HCl, 1 mM MgCl2, and 1 mM EDTA) using a polytron for 2×10 second bursts in the presence of protease inhibitors, followed by centrifugation at 45,000×g for 20 minutes. The final membrane pellet was re-homogenized in storage buffer (50 mM Tris-HCl, 1 mM MgCl2, and 1 mM EDTA and 10% sucrose) and frozen at −78° C. until used. Saturation binding reactions were initiated by the addition of membrane preparation (protein concentration of 20 μg/well for rat CB2) into wells of a deep well plate containing [^3H]CP 55,940 (120 Ci/mmol, a nonselective CB agonist commercially available from Tocris) in assay buffer (50 mM Tris, 2.5 mM EDTA, 5 mM MgCl2, and 0.5 mg/mL fatty acid free BSA, pH 7.4). After 45 min incubation at 30° C., binding reaction was terminated by the addition of […] of cold assay buffer followed by rapid vacuum filtration through a UniFilter-96 GF/C filter plates (pre-soaked in 1 mg/mL BSA for 2 hours). The bound activity was counted in a TopCount using Microscint-20. Saturation experiments were conducted with twelve concentrations of [^3H]CP 55,940 ranging from 0.01 to 8 nM. Competition experiments were conducted with 0.5 nM [^3H]CP 55,940 and five concentrations of displacing ligands selected from the range of 0.01 nM to 10 μM. The addition of 10 μM unlabeled CP 55,940 (Tocris, Ellisville, Mo.) was used to assess nonspecific binding.
# T1 sequence (P34972 whole entry): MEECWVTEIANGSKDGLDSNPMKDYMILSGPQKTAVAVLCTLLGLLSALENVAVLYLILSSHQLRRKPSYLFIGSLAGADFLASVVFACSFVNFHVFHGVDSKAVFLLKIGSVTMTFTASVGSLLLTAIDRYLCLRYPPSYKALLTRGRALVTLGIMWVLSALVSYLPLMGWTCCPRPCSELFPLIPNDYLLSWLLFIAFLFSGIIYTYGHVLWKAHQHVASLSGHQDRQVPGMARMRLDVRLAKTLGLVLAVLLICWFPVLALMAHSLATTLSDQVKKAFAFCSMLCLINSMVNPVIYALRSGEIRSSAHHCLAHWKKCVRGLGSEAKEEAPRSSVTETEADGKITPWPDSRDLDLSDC
Structure (SMILES),Ki (human CB2 receptors; read-out: human CB2 (Ki)) [nM],Ki (rat CB2; read-out: rat CB2 (Ki)) [nM],"Ki (human CB2 receptors; human CB2 (Ki, nM)) [nM]","Ki (rat CB2; rat CB2 (Ki, nM)) [nM]"
"CN1CCC[C@H]1COc1ccc(C(F)(F)F)cc1C(=O)/N=C1\OC(C(C)(C)C)CN1C[C@H]1CCCO1 (stereo partly drawn) [Example 73, N-{(2Z)-5-tert-butyl-3-[(2R)-tetrahydrofuran-2-ylmethyl]-1,3-oxazolidin-2-ylidene}-2-{[(2S)-1-methylpyrrolidin-2-yl]methoxy}-5-(trifluoromethyl)benzamide]",291,230,,
"CCCCn1/c(=N/C(=O)c2cc(C#N)ccc2OCC(C)(C)O)cc(C(C)(C)C)n1C [Example 108, N-[(3E)-2-butyl-5-tert-butyl-1-methyl-1,2-dihydro-3H-pyrazol-3-ylidene]-5-cyano-2-(2-hydroxy-2-methylpropoxy)benzamide]",> 1000,288,,
"C[C@@H](O)[C@@H](C)Oc1ccc(C(F)(F)F)cc1C(=O)/N=c1\cc(C(C)(C)C)n(C)n1C[C@H]1CCCO1 [Example 104, N-{(3E)-5-tert-butyl-1-methyl-2-[(2R)-tetrahydrofuran-2-ylmethyl]-1,2-dihydro-3 H-pyrazol-3-ylidene}-2-{[(1R,2R)-2-hydroxy-1-methylpropyl]oxy}-5-(trifluoromethyl)benzamide]",> 1000,317,,
CO[C@H]1CCO[C@@H]1COc1ccc(C(F)(F)F)cc1C(=O)/N=c1\cc(C(C)(C)C)n(C)n1C[C@H]1CCCO1 [Example 22],> 1000,424,,
"Cn1c(C(C)(C)C)c/c(=N\C(=O)c2cc(C(F)(F)F)ccc2OCC(C)(C)O)n1CC1CCCC1 [Example 106, N-[(3E)-5-tert-butyl-2-(cyclopentylmethyl)-1-methyl-1,2-dihydro-3H-pyrazol-3-ylidene]-2-(2-hydroxy-2-methylpropoxy)-5-(trifluoromethyl)benzamide]",,,6.6,8.7
"CCCCn1ccc(C(C)(C)C)c/c1=N\C(=O)c1cc(C(F)(F)F)ccc1OCC(C)(C)O [Example 92, N-[(2E)-1-butyl-4-tert-butylpyridin-2(1H)-ylidene]-2-(2-hydroxy-2-methylpropoxy)-5-(trifluoromethyl)benzamide]",,,73,47
"CCCn1/c(=N/C(=O)c2cc(C(F)(F)F)ccc2OCC(C)(C)O)cc(C(C)(C)C)n1C [Example 125, N-[(3E)-5-tert-butyl-1-methyl-2-propyl-1,2-dihydro-3H-pyrazol-3-ylidene]-2-(2-hydroxy-2-methylpropoxy)-5-(trifluoromethyl)benzamide]",211,,,86
"C[C@H](O)[C@H](C)Oc1ccc(C(F)(F)F)cc1C(=O)/N=c1\cc(C(C)(C)C)n(C)n1C[C@H]1CCCO1 [Example 103, N-{(3E)-5-tert-butyl-1-methyl-2-[(2R)-tetrahydrofuran-2-ylmethyl]-1,2-dihydro-3 H-pyrazol-3-ylidene}-2-{[(1S,2S)-2-hydroxy-1-methylpropyl]oxy}-5-(trifluoromethyl)benzamide]",,,3.8,1.7
"Cn1c(C(C)(C)C)c/c(=N\C(=O)c2cc(C(F)(F)F)ccc2OC[C@@H]2CCN2S(C)(=O)=O)n1C[C@H]1CCCO1 [Example 67, N-{(3E)-5-tert-butyl-1-methyl-2-[(2R)-tetrahydrofuran-2-ylmethyl]-1,2-dihydro-3H-pyrazol-3-ylidene}-2-{[(2S)-1-(methylsulfonyl)azetidin-2-yl]methoxy}-5-(trifluoromethyl)benzamide]",,,> 1000,70
C/C(COc1ccc(C(F)(F)F)cc1C(=O)/N=c1\cc(C(C)(C)C)n(C)n1C[C@H]1CCCO1)=N\OC1CCCCO1 (stereo partly shown) [Example 79],> 1000,128,,
"CSCCCCOc1ccc(C(F)(F)F)cc1C(=O)/N=c1\cc(C(C)(C)C)n(C)n1C[C@H]1CCCO1 [Example 82, N-{(3E)-5-tert-butyl-1-methyl-2-[(2R)-tetrahydrofuran-2-ylmethyl]-1,2-dihydro-3 H-pyrazol-3-ylidene}-2-[4-(methylthio)butoxy]-5-(trifluoromethyl)benzamide]",,,5.4,2.6
